Columns and labels:
[1] = tested on: primary mouse cortical neurons co-cultured with OPCs; test: In vitro OL maturation assay, MBP-colocalization with co-cultured axons; type: cell-based, rat
Procedure: In vitro OL maturation assay. Cortical and hippocampal tissue was dissected from C57BL/6 mice at embryonic day 14 and dissociated in 0.5% Trypsin with 100 U/mL DNase I diluted in HBSS (+/+) for 10 min at 37° C. Reaction was stopped by supplementing to a final concentration of 10% v/v FBS, 100 μg/mL Soybean Trypsin Inhibitor and 10 U/mL DNase I. Cells were resuspended in plating media consisting of equal volumes of FCS, HBSS (+/+), High-Glucose DMEM with L-glutamine, and F-12 with L-glutamine, then plated onto acid pre-washed German glass coverslips coated with 50 μg/mL Poly-D-Lysine and 20 μg/mL Laminin at a density of 50,000 cells/cm^2. Cells were allowed to attach for 2 hrs and then coverslips were rinsed with PBS before being transferred to a 24-well plate containing 0.5 mL growth media consisting of: Neurobasal medium, B27 supplement (Gibco), 0.5× Glutamax (Thermo), 5 μg/mL gentamycin and 5 μM glutamic acid. Half of the cell media was replaced after 3 DIV with supplemental growth media not containing glutamic acid^47. After 5 DIV, rat-derived cortical OPCs were added to the neuronal culture at a density of 5,000 cells/cm^2. Co-culture media used to resuspend and plate OPCs consisting of a 1:3 mixture of neuronal growth supplement (as above) and oligodendrocyte differentiation media, containing DMEM/F-12 (with L-glutamine), insulin-free N2 supplement, 1× Glutamax, 1×MEM non-essential amino acids, 1× β-mercaptoethanol, 2 ng/mL PDGF and 5 μg/mL gentamycin. All drugs and taurine co-treatment were added once to culture upon plating of OPCs at the following concentrations: 0.5 μM benztropine, 1.0 μM miconazole, each with or without 2 mM taurine. Cultures were maintained by replacing half of the media every three days, maintaining an equivalent concentration of taurine throughout in appropriate wells. […] Co-localization was quantified within regions of interest delineated as the periphery of individual oligodendrocytes. The co-localization index (adapted from a previously described method^48) was calculated as total proportion of co-localized 3D surface area between Tuj1 (neuron) and oligodendrocyte (MBP) over total Tuj1 (neuronal process) area enclosed within each oligodendrocyte process tree as the selected region of interest (ROI, see FIG. 3B″). Mean colocalization values for each condition were normalized to the DMSO condition mean analyzed statistically using Prism software (GraphPad, v7) for two-way ANOVA comparisons (Drug Treatment×Taurine Supplement) with Tukey post-tests for statistical significance. […]

[2] = tested on: Rat primary optic nerve OPCs; test: In vitro OPC differentiation assay, MBP expression by Western blot; type: cell-based
Procedure: Rat primary optic nerve OPCs were isolated by panning (>99% A2B5^+) and cultured in poly-D-lysine (10 μg/ml)-coated TC dishes in OPC culture media (Neurobasal Media, Invitrogen) supplemented with B27-without vitamin A (Invitrogen), 1× non-essential amino acids, 1× Glutamax, 1× anti-anti, β-mercaptoethanol and PDGF-AA (50 ng/ml; Peprotech) at 37° C. with 5% CO2. The culture medium was replaced every 48 h and cells were collected before the confluency reached 60% to maintain a naive state. For differentiation, OPCs were plated at 1 million cells in one 10 cm petri-dish filled with differentiation media, which is identical to the culture media, but with PDGF-AA at 2 ng/ml. T3 and DMSO were used as the positive control and negative control, respectively. Five replicates of cells were collected at different times (0, 3, and 6 days) for metabolomics studies.
Western blot analysis. OPCs were plated in basal differentiation medium at 1.7×10^5 cells/well and treated for 6 days with benztropine (0.5 μM), miconazole (2 μM) with and without the tested endogenous metabolites, T3 (1 μM) or DMSO. After washing with PBS, cells were collected in ice cold RIPA buffer containing protease and phosphatase inhibitors. Following incubation on ice for >20 min and sonication, lysed cells were centrifuged (16,000 g, 15 min at 4° C.). Total protein was quantified using a BCA analysis and 25 μg of protein from each sample was denatured by boiling with Bolt LDS Sample Buffer (4×) and Sample Reducing Agent (10×). Proteins were electrophoresed using Bolt 4-12% Bis-Tris gels (Life Technologies) and transferred to a PVDF membrane (Bio-Rad). The membrane was blocked with Odyssey PBS Blocking Buffer (LI-COR) and incubated overnight at 4° C. with anti-MBP (mouse, 1:2000) and anti-actin (mouse, 1:5000). Blots were incubated with […] secondary donkey anti-mouse antibody (LI-COR, 1:7500) and imaged using Odyssey CLx and Image Studio (LI-COR).

NCCS(=O)(=O)O [taurine, 2-aminoethanesulfonic acid]
MBP-colocalization with axons, treatment alone vs. DMSO (Tukey post hoc) ([1]; 0.5 μM benztropine, 1.0 μM miconazole or 2 mM taurine alone, 14 days): no significant difference | Index of MBP-colocalization with axons ([1]; 2 mM taurine in cultures treated with benztropine or miconazole, 14 days of neuron-OPC co-culture): significantly increase | MBP induction (Western blot), increase compared to benztropine-induced differentiation in the absence of taurine ([2]; 2 mM taurine added to benztropine (0.5 μM), 6 days): 2.0 fold | MBP induction (Western blot), increase compared to miconazole-induced differentiation in the absence of taurine ([2]; 2 mM taurine added to miconazole (2 μM), 6 days): 2.3 fold | Efficacy of induced OPC differentiation ([2]; added to benztropine- or miconazole-containing media): dramatically increase
